Measured values as given in patent US20140221490A1, “METHODS OF TREATING PAIN” (Hospira, Inc., priority 2011, published 2014).
One block for each compound: values may come before it.

Tests used:
[1] = Study 2: pharmacokinetics of HPβCD-diclofenac and excipient HPβCD in subjects with renal or hepatic impairment and healthy subjects (crossover vs itraconazole); type: in vivo, human; details: for AUC(0 − t) / AUC∞ / CL / Vz / t½ / λz: mean ± SD; for Tmax: median; for maximum HPβCD plasma concentration: after administration of Dyloject
Protocol: Subjects with mild chronic hepatic impairment, as defined by Child-Pugh Classification A, Score of 5 to 6 and a bilirubin of ≦2.5 mg/dl, were recruited. Subjects with renal or hepatic impairment were included if they were between 18-75 years of age, and healthy subjects between 18 and 65 years of age.
Inclusion criteria for healthy subjects were similar to those for Study 1. Healthy subjects were required to have normal renal function, defined as CrCl>80 mL/min, and normal hepatic function. […]
Similar to Study 1, there were allowances for a greater breadth of co-morbid conditions in the renal and hepatic groups. […] Diabetic patients must have been on a stable therapeutic regimen for four weeks.
Exclusion criteria included pregnancy, uncontrolled or poorly controlled diabetes, use of dialysis, fluctuating or rapidly deteriorating hepatic function, hepatic or other cancers, organ transplantation or immunosuppression, acute infections, or asthma. Subjects were excluded for any serious cardiovascular events, such as myocardial infarction, coronary artery bypass surgery or percutaneous coronary intervention, unstable angina, stroke or congestive heart failure. Restrictions were also placed on certain disease states, such as current intestinal disorders or infections, peptic ulcers, GI bleeding or cerebral hemorrhage. Subjects who were positive for hepatitis B or hepatitis C were excluded from the healthy and renal groups, but were included in the subjects with mild chronic hepatic impairment. […] Hypersensitivity to NSAIDs or diclofenac also prompted exclusion.
Subjects with renal or hepatic impairment reported to the study site on study day 0 and remained at the site for two nights and two days. […] Subjects were discharged on study day 2 after being assessed by the investigator, and returned 7±3 days after dosing for final safety assessments. If there were no abnormal findings at discharge, the follow-up visit was completed via telephone.
Healthy subjects reported to the study site on study day 0 and remained at the site for three nights and three days. […] Blood samples were obtained as described above for renal and hepatic subjects. […] For itraconazole, one blood sample was to be drawn at each time point to assay for HPβCD concentrations. Subjects were discharged on study day 3 after being assessed by the investigator, and returned 7±3 days after receiving the last dose of study drug for safety assessments.
The LOQ for the HPβCD assay was 100 ng/ml.
Pharmacokinetic parameters were calculated using non-compartmental analysis. Only those plasma concentrations equal to or greater than the lower limit of quantitation were used in the analysis. Actual sampling times were used in all pharmacokinetic analyses.
The maximum serum concentration (Cmax) and time to Cmax (Tmax) were taken directly from the data. The elimination rate constant, λz, was calculated as the negative of the slope of the terminal log-linear segment of the serum concentration-time curve. The range of data used for each subject and treatment was determined by visual inspection of a semi-logarithmic plot of concentration vs. time. Elimination half-life (t½) was calculated according to the following equation;
where Ctf is the final concentration≧: LOQ. Total plasma clearance (CL) was calculated as Dose/AUC, and volume of distribution (Vz) was calculated as Dose/λz AUC.
Comparisons among the three subject types were done using […]. The same model was used to test for the effect of hepatic impairment on the pharmacokinetics of diclofenac and HPβCD but without additional comparisons, as there were only two groups.

[2] = cited from earlier work
[3] = Study 2, Healthy matches (to hepatic group), 37.5 mg HPβCD-diclofenac IV, plasma HPβCD
[4] = Study 2, Healthy matches (to renal groups), 37.5 mg HPβCD-diclofenac IV, plasma HPβCD
[5] = Study 2, Healthy, plasma HPβCD after 37.5 mg HPβCD-diclofenac IV
[6] = Study 2, Healthy, plasma HPβCD after 200 mg itraconazole IV
[7] = Study 2, Mild Hepatic, 37.5 mg HPβCD-diclofenac IV, plasma HPβCD
[8] = Study 2, Mild Renal, 37.5 mg HPβCD-diclofenac IV, plasma HPβCD
[9] = Study 2, Moderate renal, 37.5 mg HPβCD-diclofenac IV, plasma HPβCD
[10] = moderate renal insufficiency compared to healthy subjects
[11] = subjects with moderate renal insufficiency, 37.5 mg dose of HPβCD-diclofenac

PK in subjects with mild hepatic impairment versus matched healthy controls ([1]; 37.5 mg IV): no differences
exposure to HPβCD, geometric least squares mean ratio of AUC∞, relative to 8000 mg as Sporanox ([1]; 333.3 mg HPβCD as HPβCD-diclofenac, healthy subjects): 4.58%
AUC(0 − t) [1, 3]: 52,982 ± 11,267 h × ng/mL
AUC∞ [1, 3]: 53,651 ± 11,321 h × ng/mL
CL [1, 3]: 107 ± 21.2 mL/min
Vz [1, 3]: 20.6 ± 2.45 L
t½ [1, 3]: 2.28 ± 0.42 h
λz [1, 3]: 0.3127 ± 0.052 h⁻¹
Tmax [1, 3]: 0.083 h
AUC(0 − t) [1, 4]: 66,449 ± 12,642 h × ng/mL
AUC∞ [1, 4]: 67,316 ± 12,615 h × ng/mL
CL [1, 4]: 85.2 ± 16.5 mL/min
Vz [1, 4]: 23.3 ± 9.84 L
t½ [1, 4]: 3.29 ± 1.66 h
λz [1, 4]: 0.2510 ± 0.095 h⁻¹
Tmax [1, 4]: 0.083 h
AUC(0 − t) [1, 5]: 58,994 ± 14,123 h × ng/mL
AUC∞ [1, 5]: 59,709 ± 14,217 h × ng/mL
CL [1, 5]: 98.0 ± 22.7 mL/min
Vz [1, 5]: 21.8 ± 7.36 L
t½ [1, 5]: 2.74 ± 1.35 h
λz [1, 5]: 0.2909 ± 0.0860 h⁻¹
Tmax [1, 5]: 0.083 h
CL [1, 6]: 106 ± 19.0 mL/min
Vz [1, 6]: 23.5 ± 5.65 L
t½ [1, 6]: 2.54 ± 0.25 h
λz [1, 6]: 0.2752 ± 0.0244 h⁻¹
Tmax [1, 6]: 1.083 h
AUC(0 − t) [1, 7]: 55,946 ± 17,233 h × ng/mL
AUC∞ [1, 7]: 56,802 ± 17,412 h × ng/mL
CL [1, 7]: 107 ± 33.8 mL/min
Vz [1, 7]: 20.0 ± 4.19 L
t½ [1, 7]: 2.28 ± 0.60 h
λz [1, 7]: 0.3226 ± 0.084 h⁻¹
Tmax [1, 7]: 0.083 h
AUC(0 − t) [1, 8]: 127,141 ± 90,489 h × ng/mL
AUC∞ [1, 8]: 128,349 ± 91,132 h × ng/mL
CL [1, 8]: 59.0 ± 31.3 mL/min
Vz [1, 8]: 13.6 ± 5.38 L
t½ [1, 8]: 2.87 ± 0.69 h
λz [1, 8]: 0.2549 ± 0.068 h⁻¹
Tmax [1, 8]: 0.083 h
AUC(0 − t) [1, 9]: 169,042 ± 52,722 h × ng/mL
AUC∞ [1, 9]: 165,728 ± 60,386 h × ng/mL
CL [1, 9]: 36.2 ± 10.0 mL/min
Vz [1, 9]: 17.7 ± 1.88 L
t½ [1, 9]: 6.04 ± 1.94 h
λz [1, 9]: 0.1226 ± 0.033 h⁻¹
Tmax [1, 9]: 0.083 h
exposure to HPβCD relative to that of itraconazole ([1]; after a single dose): 1/20
maximum HPβCD plasma concentration ([1]; normal healthy subjects): 70 µg/mL
maximum HPβCD plasma concentration ([1]; subjects with moderate renal impairment): 106 µg/mL
exposure to HPβCD relative to that of itraconazole ([1]; after steady state): ⅛
decrease in CL of HPβCD [1, 10]: 2.4 fold
increase in t½ of HPβCD [1, 10]: 1.8 fold
exposure to HPβCD lower than in healthy subjects administered itraconazole, based on AUC(0-T) [1, 11]: 7.9 fold
exposure to HPβCD lower than in healthy subjects administered itraconazole, based on average concentration at steady state (Cav) [1, 11]: 3.9 fold
Structure (SMILES): CC(O)COC[C@H]1O[C@@H]2O[C@H]3[C@H](O)[C@@H](O)[C@@H](O[C@H]4[C@H](O)[C@@H](O)[C@@H](O[C@H]5[C@H](O)[C@@H](O)[C@@H](O[C@H]6[C@H](O)[C@@H](O)[C@@H](O[C@H]7[C@H](O)[C@@H](O)[C@@H](O[C@H]8[C@H](O)[C@@H](O)[C@@H](O[C@H]1[C@H](O)[C@H]2O)O[C@@H]8COCC(C)O)O[C@@H]7COCC(C)O)O[C@@H]6COCC(C)O)O[C@@H]5COCC(C)O)O[C@@H]4COCC(C)O)O[C@@H]3COCC(C)O (stereo partly drawn) [HPβCD, hydroxypropyl-beta-cyclodextrin]

Structure (SMILES): O=C(O)Cc1ccccc1Nc1c(Cl)cccc1Cl [Diclofenac Na, diclofenac sodium]
Vd, volume of distribution [2]: 0.17 L/kg
Prot. bind., drug fraction bound to protein (fP) ([2]; plasma): 99.5%
Cmax ([2]; read-out: Cmax, maximum drug concentration in plasma, based on the drug's pharmacokinetics and administration of a normal drug dose): 13 µM
